According to PubChem BioAssay (NCI):
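The concentration for 50% growth inhibition is given as GI50. TGI: total growth inhibition.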

Columns and labels:
Experiment in all cases: inhibition of tumour cell growth, NCI panel, 384-well format
SK-MEL-28 melanoma = test system: SK-MEL-28 melanoma
HS 578T breast = test system: HS 578T breast
MDA-MB-435 melanoma = test system: MDA-MB-435 melanoma
SF-539 CNS = test system: SF-539 CNS
U251 glioblastoma = test system: U251 glioblastoma
IGROV1 ovarian = test system: IGROV1 ovarian
SF-295 CNS = test system: SF-295 CNS
TK-10 renal = test system: TK-10 renal
SNB-75 CNS = test system: SNB-75 CNS
HT29 colon = test system: HT29 colon
SW-620 colon = test system: SW-620 colon
OVCAR-8 ovarian = test system: OVCAR-8 ovarian
HOP-92 NSCLC = test system: HOP-92 NSCLC
RPMI-8226 leukemia = test system: RPMI-8226 leukemia
SR leukemia = test system: SR leukemia
A549 NSCLC = test system: A549 NSCLC
A498 renal = test system: A498 renal
MDA-MB-231 breast = test system: MDA-MB-231 breast
OVCAR-5 ovarian = test system: OVCAR-5 ovarian
PC-3 prostate = test system: PC-3 prostate
MOLT-4 leukemia = test system: MOLT-4 leukemia
SK-MEL-5 melanoma = test system: SK-MEL-5 melanoma
HCC-2998 colon = test system: HCC-2998 colon
NCI-H322M lung = test system: NCI-H322M lung
MDA-MB-468 breast = test system: MDA-MB-468 breast
CCRF-CEM leukemia = test system: CCRF-CEM leukemia
SF-268 CNS = test system: SF-268 CNS
SNB-19 CNS = test system: SNB-19 CNS
SN12C renal = test system: SN12C renal
DU-145 prostate = test system: DU-145 prostate
HL-60(TB) leukemia = test system: HL-60(TB) leukemia
CAKI-1 renal = test system: CAKI-1 renal
MCF7 breast = test system: MCF7 breast
OVCAR-3 ovarian = test system: OVCAR-3 ovarian
UO-31 renal = test system: UO-31 renal
LOX IMVI melanoma = test system: LOX IMVI melanoma
RXF 393 renal = test system: RXF 393 renal
OVCAR-4 ovarian = test system: OVCAR-4 ovarian
KM12 colon = test system: KM12 colon
COLO 205 colon = test system: COLO 205 colon
786-0 renal = test system: 786-0 renal
M14 melanoma = test system: M14 melanoma
MALME-3M melanoma = test system: MALME-3M melanoma
HCT-15 colon = test system: HCT-15 colon
K-562 leukemia = test system: K-562 leukemia
NCI-H460 NSCLC = test system: NCI-H460 NSCLC
EKVX NSCLC = test system: EKVX NSCLC
NCI/ADR-RES ovarian = test system: NCI/ADR-RES ovarian
T-47D breast = test system: T-47D breast

Which results are given for `CCc1c(C#N)c(S[C@@H](C(N)=O)c2ccccc2)nc(N(C)C)c1C#N`?
GI50 (SK-MEL-28 melanoma): > 100 µM; TGI (SK-MEL-28 melanoma): > 100 µM; GI50 (HS 578T breast): 4.58 µM; TGI (HS 578T breast): > 100 µM; GI50 (MDA-MB-435 melanoma): > 100 µM; TGI (MDA-MB-435 melanoma): > 100 µM; GI50 (SF-539 CNS): > 100 µM; TGI (SF-539 CNS): > 100 µM; GI50 (U251 glioblastoma): > 100 µM; TGI (U251 glioblastoma): > 100 µM; GI50 (IGROV1 ovarian): > 100 µM; TGI (IGROV1 ovarian): > 100 µM; GI50 (SF-295 CNS): 3.83 µM; TGI (SF-295 CNS): > 100 µM; GI50 (TK-10 renal): > 100 µM; TGI (TK-10 renal): > 100 µM; GI50 (SNB-75 CNS): 26.4 µM; TGI (SNB-75 CNS): 76.8 µM; GI50 (HT29 colon): > 100 µM; TGI (HT29 colon): > 100 µM; GI50 (SW-620 colon): > 100 µM; TGI (SW-620 colon): > 100 µM; GI50 (OVCAR-8 ovarian): 3.77 µM; TGI (OVCAR-8 ovarian): > 100 µM; GI50 (HOP-92 NSCLC): 10.6 µM; TGI (HOP-92 NSCLC): > 100 µM; GI50 (RPMI-8226 leukemia): > 100 µM; TGI (RPMI-8226 leukemia): > 100 µM; GI50 (SR leukemia): 3.05 µM; TGI (SR leukemia): > 100 µM; GI50 (A549 NSCLC): > 100 µM; TGI (A549 NSCLC): > 100 µM; GI50 (A498 renal): > 100 µM; TGI (A498 renal): > 100 µM; GI50 (MDA-MB-231 breast): 37.7 µM; TGI (MDA-MB-231 breast): > 100 µM; GI50 (OVCAR-5 ovarian): > 100 µM; TGI (OVCAR-5 ovarian): > 100 µM; GI50 (PC-3 prostate): > 100 µM; TGI (PC-3 prostate): > 100 µM; GI50 (MOLT-4 leukemia): > 100 µM; TGI (MOLT-4 leukemia): > 100 µM; GI50 (SK-MEL-5 melanoma): > 100 µM; TGI (SK-MEL-5 melanoma): > 100 µM; GI50 (HCC-2998 colon): > 100 µM; TGI (HCC-2998 colon): > 100 µM; GI50 (NCI-H322M lung): > 100 µM; TGI (NCI-H322M lung): > 100 µM; GI50 (MDA-MB-468 breast): > 100 µM; TGI (MDA-MB-468 breast): > 100 µM; GI50 (CCRF-CEM leukemia): > 100 µM; TGI (CCRF-CEM leukemia): > 100 µM; GI50 (SF-268 CNS): > 100 µM; TGI (SF-268 CNS): > 100 µM; GI50 (SNB-19 CNS): > 100 µM; TGI (SNB-19 CNS): > 100 µM; GI50 (SN12C renal): > 100 µM; TGI (SN12C renal): > 100 µM; GI50 (DU-145 prostate): > 100 µM; TGI (DU-145 prostate): > 100 µM; GI50 (HL-60(TB) leukemia): > 100 µM; TGI (HL-60(TB) leukemia): > 100 µM; GI50 (CAKI-1 renal): > 100 µM; TGI (CAKI-1 renal): > 100 µM; GI50 (MCF7 breast): > 100 µM; TGI (MCF7 breast): > 100 µM; GI50 (OVCAR-3 ovarian): > 100 µM; TGI (OVCAR-3 ovarian): > 100 µM; GI50 (UO-31 renal): > 100 µM; TGI (UO-31 renal): > 100 µM; GI50 (LOX IMVI melanoma): > 100 µM; TGI (LOX IMVI melanoma): > 100 µM; GI50 (RXF 393 renal): 2.31 µM; TGI (RXF 393 renal): 6.06 µM; GI50 (OVCAR-4 ovarian): > 100 µM; TGI (OVCAR-4 ovarian): > 100 µM; GI50 (KM12 colon): > 100 µM; TGI (KM12 colon): > 100 µM; GI50 (COLO 205 colon): > 100 µM; TGI (COLO 205 colon): > 100 µM; GI50 ([…]-0 renal): > 100 µM; TGI (786-0 renal): > 100 µM; GI50 (M14 melanoma): > 100 µM; TGI (M14 melanoma): > 100 µM; GI50 (MALME-3M melanoma): 38.1 µM; TGI (MALME-3M melanoma): > 100 µM; GI50 (HCT-15 colon): > 100 µM; TGI (HCT-15 colon): > 100 µM; GI50 (K-562 leukemia): > 100 µM; TGI (K-562 leukemia): > 100 µM; GI50 (NCI-H460 NSCLC): > 100 µM; TGI (NCI-H460 NSCLC): > 100 µM; GI50 (EKVX NSCLC): > 100 µM; TGI (EKVX NSCLC): > 100 µM; GI50 (NCI/ADR-RES ovarian): > 100 µM; TGI (NCI/ADR-RES ovarian): > 100 µM; GI50 (T-47D breast): > 100 µM; TGI (T-47D breast): > 100 µM
